Experimental data: ChEMBL document CHEMBL3351859, “Indoleamine 2,3-dioxygenase inhibitors: potential treatment for cancer, sepsis, and more” (ACS Med Chem Lett, 2014)

target: Indoleamine 2,3-dioxygenase 1 (Homo sapiens, UniProt P14902); assay: Inhibition of intracellular IDO1 activity in human HeLa cells assessed as L-kynurenine production by Ehrlichs test; type: cell-based
Sequence (P14902 whole entry): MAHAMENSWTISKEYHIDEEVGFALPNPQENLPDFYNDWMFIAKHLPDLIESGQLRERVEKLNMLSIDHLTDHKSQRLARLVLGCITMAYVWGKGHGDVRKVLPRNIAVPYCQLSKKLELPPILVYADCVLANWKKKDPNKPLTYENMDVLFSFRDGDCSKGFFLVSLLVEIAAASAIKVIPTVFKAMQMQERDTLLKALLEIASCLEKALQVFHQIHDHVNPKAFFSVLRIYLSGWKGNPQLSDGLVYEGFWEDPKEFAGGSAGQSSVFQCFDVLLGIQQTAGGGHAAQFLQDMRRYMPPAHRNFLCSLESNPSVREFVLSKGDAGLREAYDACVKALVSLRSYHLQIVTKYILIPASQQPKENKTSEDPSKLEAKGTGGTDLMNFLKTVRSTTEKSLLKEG

Row | IC50 [µM] | Compound
1 | < 0.1 | CCc1cc(Cl)ccc1Nc1cnn[nH]1
2 | 0.1 | CCc1cc(Nc2cnn[nH]2)ccc1Cl
3 | 1 | CS(=O)(=O)NCc1cc(Cl)ccc1Nc1cnn[nH]1
4 | 1 | O=C(O)C1CC(Cc2cc(Cl)ccc2Nc2cn[nH]n2)C1 (stereo unspecified)
5 | < 0.1 | Cc1cc(F)ccc1Nc1c[nH]nn1
6 | 0.1 | N#Cc1cc(Nc2cn[nH]n2)ccc1Cl
